Test results from ChEMBL document CHEMBL1201862, “PubChem BioAssay data set” (2004).
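48-hour exposure; five concentrations; linearly interpolated endpoints. The concentration for 50% growth inhibition is given as GI50.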 Calls of active or inactive are those of the source. No stated cut-off is given here; in the data, active = GI50 up to about 1.1 µM and inactive = higher.

Tests used:
Test in all cases: NCI-60 cell line screen, 48 h
[1] = test system: A498
[2] = test system: NCI/ADR-RES
[3] = test system: CAKI-1
[4] = test system: PC-3
[5] = test system: DU-145
[6] = test system: KM12
[7] = test system: OVCAR-5
[8] = test system: SK-MEL-28
[9] = test system: A549
[10] = test system: SK-OV-3
[11] = test system: IGROV-1
[12] = test system: Malme-3M
[13] = test system: HCT-15
[14] = test system: RXF 393
[15] = test system: NCI-H226
[16] = test system: NCI-H460
[17] = test system: HOP-92
[18] = test system: LOX IMVI
[19] = test system: NCI-H522
[20] = test system: UACC-257
[21] = test system: OVCAR-8
[22] = test system: Hs-578T
[23] = test system: OVCAR-3
[24] = test system: M14
[25] = test system: HCT-116
[26] = test system: SK-MEL-5
[27] = test system: SF-295
[28] = test system: TK-10
[29] = test system: MCF7
[30] = test system: HT-29
[31] = test system: 786-0
[32] = test system: SW-620
[33] = test system: SF-268
[34] = test system: HL-60
[35] = test system: NCI-H23
[36] = test system: HOP-62
[37] = test system: SF-539
[38] = test system: EKVX
[39] = test system: RPMI-8226
[40] = test system: CCRF-CEM
[41] = test system: UACC-62
[42] = test system: MDA-MB-231
[43] = test system: ACHN
[44] = test system: UO-31
[45] = test system: SN12C
[46] = test system: MDA-N
[47] = test system: SNB-75
[48] = test system: T47D
[49] = test system: U-251
[50] = test system: SK-MEL-2
[51] = test system: OVCAR-4
[52] = test system: MDA-MB-435
[53] = test system: SNB-19
[54] = test system: COLO 205
[55] = test system: HCC 2998
[56] = test system: K562
[57] = test system: MOLT-4
[58] = test system: SR

Measured: GI50

CN(C)C1C(=O)C(C(N)=O)=C(O)C2(O)C(O)=C3C(=O)c4c(O)cccc4C(C)(O)C3CC12 (stereo unspecified)
50.5 µM: [13]
inactive: [1] 43.8 µM | [2] 76.4 µM | [3] 38.7 µM | [4] > 100 µM | [5] 68.4 µM | [6] 73.8 µM | [7] > 100 µM | [8] 93.5 µM | [9] 60.8 µM | [10] 76.6 µM | [11] 52.8 µM | [12] 67.3 µM | [14] 43.6 µM | [15] 82.6 µM | [16] 52 µM | [17] > 100 µM | [18] 33.7 µM | [19] 78 µM | [20] > 100 µM

Cc1cn2c(/C=N/NC(=N)N)c(-c3ccc([N+](=O)[O-])cc3)nc2s1
inactive: [23] 1.65 µM | [1] 1.52 µM | [2] 4.04 µM | [3] 2.61 µM | [24] 1.17 µM | [4] 1.4 µM | [5] 2.49 µM | [26] 1.36 µM | [27] 1.46 µM | [28] 1.57 µM | [30] 1.32 µM | [33] 1.64 µM | [8] 1.57 µM | [34] 1.53 µM | [35] 1.59 µM | [36] 1.29 µM | [37] 1.68 µM | [9] 1.66 µM | [10] 1.76 µM | [12] 1.39 µM | [39] 1.42 µM | [41] 1.72 µM | [15] 1.87 µM | [43] 1.49 µM | [44] 1.95 µM | [45] 1.46 µM | [16] 1.76 µM | [50] 1.36 µM | [52] 1.57 µM | [20] 1.18 µM
active: [21] 0.149 µM | [22] 0.935 µM | [25] 0.227 µM | [6] 0.401 µM | [29] 0.252 µM | [7] 0.785 µM | [31] 0.256 µM | [32] 0.175 µM | [38] 0.338 µM | [40] 0.194 µM | [14] 0.914 µM | [42] 0.385 µM | [46] 0.425 µM | [47] 0.509 µM | [48] 0.566 µM | [49] 0.995 µM | [51] 0.169 µM | [53] 0.357 µM | [17] 0.641 µM | [18] 0.352 µM | [54] 0.685 µM
1.46 µM: [13]

Nc1nc2c(ncn2CC2CCC(CO)C2)c(=O)[nH]1 (stereo unspecified)
inactive: [22] > 100 µM | [55] > 100 µM | [23] > 100 µM | [1] > 100 µM | [2] > 100 µM | [3] > 100 µM | [24] > 100 µM | [25] > 100 µM | [4] > 100 µM | [5] > 100 µM | [56] > 100 µM | [26] > 100 µM | [27] > 100 µM | [28] > 100 µM | [6] > 100 µM | [29] > 100 µM | [7] > 100 µM | [31] > 100 µM | [32] > 100 µM | [33] > 100 µM | [8] > 100 µM | [36] > 100 µM | [37] > 100 µM | [9] > 100 µM | [10] > 100 µM | [38] > 100 µM | [39] > 100 µM | [40] > 100 µM | [14] > 100 µM | [41] 29.2 µM | [42] > 100 µM | [15] > 100 µM | [43] > 100 µM | [44] > 100 µM | [45] > 100 µM | [46] > 100 µM | [47] > 100 µM | [48] > 100 µM | [49] > 100 µM | [50] > 100 µM | [51] > 100 µM | [52] > 100 µM | [53] > 100 µM | [17] > 100 µM | [18] > 100 µM | [54] > 100 µM | [20] > 100 µM
> 100 µM: [13]

C#CCNC(CSSCC(N)C(=O)O)C(=O)O (stereo unspecified)
inactive: [21] > 100 µM | [22] > 100 µM | [55] > 100 µM | [23] > 100 µM | [1] > 100 µM | [2] > 100 µM | [3] > 100 µM | [24] > 100 µM | [25] > 100 µM | [4] > 100 µM | [5] > 100 µM | [26] > 100 µM | [27] > 100 µM | [28] > 100 µM | [6] > 100 µM | [29] > 100 µM | [7] > 100 µM | [30] > 100 µM | [31] > 100 µM | [32] > 100 µM | [33] > 100 µM | [8] > 100 µM | [35] > 100 µM | [36] > 100 µM | [37] > 100 µM | [9] > 100 µM | [10] > 100 µM | [11] > 100 µM | [12] > 100 µM | [38] > 100 µM | [39] > 100 µM | [40] > 100 µM | [14] > 100 µM | [41] > 100 µM | [42] > 100 µM | [15] > 100 µM | [43] > 100 µM | [44] > 100 µM | [46] > 100 µM | [47] > 100 µM | [48] > 100 µM | [49] > 100 µM | [50] > 100 µM | [51] > 100 µM | [52] > 100 µM | [53] > 100 µM | [17] 4.73 µM | [57] > 100 µM | [54] > 100 µM | [19] > 100 µM | [20] > 100 µM
> 100 µM: [13]

CC1(C)OP(=O)(c2ccccc2)C=C1Br (stereo unspecified)
> 100 µM: [13]
inactive: [21] > 100 µM | [22] > 100 µM | [55] > 100 µM | [23] > 100 µM | [1] > 100 µM | [2] > 100 µM | [3] > 100 µM | [24] > 100 µM | [25] > 100 µM | [4] > 100 µM | [5] > 100 µM | [56] > 100 µM | [26] > 100 µM | [27] > 100 µM | [58] > 100 µM | [28] > 100 µM | [6] > 100 µM | [7] > 100 µM | [30] > 100 µM | [31] > 100 µM | [32] > 100 µM | [33] > 100 µM | [8] > 100 µM | [34] 21 µM | [35] > 100 µM | [36] > 100 µM | [37] > 100 µM | [9] > 100 µM | [10] > 100 µM | [11] > 100 µM | [12] > 100 µM | [38] > 100 µM | [41] > 100 µM | [15] > 100 µM | [43] > 100 µM | [45] > 100 µM | [46] > 100 µM | [47] > 100 µM | [48] > 100 µM | [16] > 100 µM | [49] > 100 µM | [50] > 100 µM | [51] > 100 µM | [52] > 100 µM | [53] > 100 µM | [17] > 100 µM | [18] > 100 µM | [54] > 100 µM | [19] > 100 µM | [20] > 100 µM
active: [39] 0.348 µM

N#C/C(N)=C(C#N)/N=C/N
> 100 µM: [13]
inactive: [21] > 100 µM | [22] > 100 µM | [55] > 100 µM | [23] > 100 µM | [2] > 100 µM | [24] > 100 µM | [25] > 100 µM | [4] > 100 µM | [5] > 100 µM | [56] > 100 µM | [26] > 100 µM | [27] > 100 µM | [58] > 100 µM | [28] > 100 µM | [6] > 100 µM | [29] > 100 µM | [7] > 100 µM | [30] > 100 µM | [31] > 100 µM | [32] > 100 µM | [33] > 100 µM | [8] > 100 µM | [34] > 100 µM | [35] > 100 µM | [36] > 100 µM | [37] > 100 µM | [9] > 100 µM | [10] > 100 µM | [11] > 100 µM | [12] > 100 µM | [38] > 100 µM | [39] > 100 µM | [40] > 100 µM | [41] > 100 µM | [42] > 100 µM | [43] > 100 µM | [44] 58.6 µM | [45] > 100 µM | [46] > 100 µM | [47] > 100 µM | [48] > 100 µM | [16] > 100 µM | [49] > 100 µM | [50] > 100 µM | [51] > 100 µM | [52] > 100 µM | [17] > 100 µM | [57] > 100 µM | [18] > 100 µM | [54] > 100 µM | [20] > 100 µM
